Two substances from patent publication US10160785B2, “Antimicrobial peptides and their use for the treatment of topical infections” (priority 2015, dated 2018) can be followed below.

Data set [1] concerns Bacillus subtilis. The settings on record: Bacillus subtilis; 37° C., 20 h. The protocol:
(§1) Gram-positive bacteria (Micrococcus luteus, Bacillus subtilis, Staphylococcus aureus, Staphylococcus epidermidis and Enterococcus faecalis), Gram-negative bacteria (Escherichia coli and Pseudomonas aeruginosa) and the yeast (Candida albicans) were grown to exponential phase and then were diluted with fresh medium. BHI medium (Oxoid, Great Britain) was used for Enterococcus faecalis; YPD medium containing yeast extract peptone and glucose was used for Candida albicans and LB medium (Sigma, Czech Republic) was used for the remaining microorganisms. Then the microorganisms were added to the solutions of the tested antimicrobial peptides in LB medium in multi-well plates. The final peptide concentration it the wells was in the range of 0.1 to 100 μmol.l^−1. That was made by twofold serial dilution from the peptide stock solution (1 mmol.l^−1). The plates were incubated at 37° C. for 20 h while being continuously shaken in a Bioscreen C (Oy Growth Curves AB Ltd., Helsinki, Finland). Absorbance was measured at 540 nm every 15 min. Antimicrobial activity (Table 2) was determined as a quantitative minimum inhibitory concentration (MIC) by observing bacterial growth in the presence of different concentrations of tested peptides. In the experiments ca 10^5 CFU of bacteria or candida per well were routinely used.
(§2) Multiresistant clinical isolates of bacteria were obtained from University Hospital in Motol, Prague, Czech Republic and from Liberec Regional Hospital, Czech Republic. Methicillin resistant Staphylococcus aureus (MRSA) 6271 and Pseudomonas aeruginosa 5482 were from the Czech National Collection of Type Cultures, the National Institute of Public Health, Prague, Czech Republic. Other bacteria were from the Czech Collection of Microorganisms, Brno, Czech Republic. Candida albicans came from the Faculty of Medicine, Palacky University, Olomouc, Czech Republic.

Data set [2] concerns Candida albicans Olomouc. The settings on record: Candida albicans Olomouc; YPD medium; 37° C., 20 h (Example 2). The method, then:
as §1, §2

The test system of data set [3] is Enterococcus faecalis Motol. The settings on record: BHI medium, 37° C., 20 h. The protocol: as §1, §2
The test system of data set [4] is Escherichia coli. The settings on record: 37° C., 20 h. The protocol: as §1, §2
The subject of data set [5] is Methicillin resistant Staphylococcus aureus (MRSA) 6271. The settings on record: 37° C., 20 h. The method, then:
as §1, §2

Data set [6] has as its system Micrococcus luteus. The settings on record: Micrococcus luteus; 37° C., 20 h. The method, then:
as §1, §2

The subject of data set [7] is Pseudomonas aeruginosa 5482. The settings on record: 37° C., 20 h. The method, then:
as §1, §2

For data set [8], the system named is Pseudomonas aeruginosa Liberec. The settings on record: Pseudomonas aeruginosa Liberec; 37° C., 20 h. The protocol:
as §1, §2

The subject of data set [9] is Staphylococcus aureus Liberec. The settings on record: Staphylococcus aureus Liberec clinical isolate; 37° C., 20 h. The protocol: as §1, §2
The subject of data set [10] is Staphylococcus aureus Motol. The settings on record: Staphylococcus aureus Motol clinical isolate; 37° C., 20 h. The method, then:
as §1, §2

For data set [11], the system named is Staphylococcus epidermidis Motol. The settings on record: 37° C., 20 h. The protocol:
as §1, §2

Data set [12] concerns Candida albicans (Olomouc). The data set is described as follows: microbe, parasite or virus in culture. The settings on record: RPMI broth microdilution, 35° C., 48 hours, visual. Type of data set: cell-based. The method, then:
(§3) All yeasts Candida albicans (Olomouc) and ATCC MYA-2876, Candida glabrata ATCC 2001 and DSY 565, Candida dubliniensis ATCC MYA-646, Candida krusei ATCC 6258 and Candida tropicalis ATCC 750 were sub-cultured from sterile vials onto Sabouraud dextrose agar, which was composed of 40 g dextrose (Penta, Czech Republic), 10 g peptone (OXOID, Great Britain) and 17 g agar (OXOID), dissolved in 1 l of distilled water, and cultivated for 24 hours at 35° C.
(§4) All strains were stored in a way that minimizes the possibility of mutation. Candida spp. were grown overnight in liquid YPD medium which is composed of 10 g yeast extract (DIFCO, USA), 20 g peptone (OXOID), and 20 g dextrose (Penta) dissolved in 1 l distilled water. Then the overnight culture was cryogenically preserved by suspending in 50% glycerol solution (1:1) in small vials and stored at −80° C.
(§5) The inoculum was prepared by picking five colonies from 24-hour-old cultures of Candida spp. The colonies were suspended in 1 ml of sterile saline solution and vortexed for 15 seconds. Optical density of the suspension was adjusted spectrophotometrically by adding sterile saline solution to produce optical density of 0.18 at 600 nm. A working suspension was made by a 1:50 dilution followed by a 1:20 dilution of the stock suspension with RPMI 1640 broth medium which was composed of L-glutamine without NaHCO3 (BioSera, France), and with 0.165 mol.l^−1 MOPS (Duchefa, Netherland)—further as RPMI broth medium.
(§6) The broth microdilution test was performed by using sterile, disposable, multi-well microdilution plates (96-well). The peptides in the concentrations 0.625-160 μmol.l^−1 were pipetted into the wells in 100 μl volumes. Each well of the plate was inoculated with 100 μl of the diluted inoculum suspension. Final yeast density in each well was 5×10^2 up to 2.5×10^3 CFU/ml. The microdilution plates were incubated without shaking at 35° C. and observed for the presence or absence of visible growth for 48 hours.
(§7) Drug-free medium without inoculation served as negative control; the growth positive control contained inoculated drug-free medium. Amphotericin B was used as control drug to ensure quality of Candida strains.
(§8) The minimal inhibition concentrations (MICs) were visually determined 48 hours after inoculation. The MIC values were defined as the lowest concentration in which no observable growth is noticeable.
(§9) All yeast isolates were obtained from the Institute of Physiology of the Academy of Sciences of the Czech Republic. Candida albicans (Olomouc) came from the Faculty of Medicine and Dentistry, Palacý University Olomouc.
On the technique in general: Dilution methods test growth across graded concentrations, often in twofold steps.

Data set [13] has as its system Candida albicans ATCC MYA-2876. Put plainly: microbe, parasite or virus in culture. Type of data set: cell-based. The settings on record: RPMI broth microdilution, 35° C., 48 hours, visual. The protocol: as §3, §4, §5, §6, §7, §8, §9
Data set [14] deals with Candida dubliniensis ATCC MYA-646. Put plainly: microbe, parasite or virus in culture. The settings on record: RPMI broth microdilution, 35° C., 48 hours, visual. Type of data set: cell-based. The method, then:
as §3, §4, §5, §6, §7, §8, §9

For data set [15], the system named is Candida glabrata ATCC 2001. The data set is described as follows: microbe, parasite or virus in culture. The settings on record: RPMI broth microdilution, 35° C., 48 hours, visual. Type of data set: cell-based. The method, then:
as §3, §4, §5, §6, §7, §8, §9

In data set [16] the test system is Candida glabrata DSY 565. Put plainly: microbe, parasite or virus in culture. The data set is classed as cell-based. The settings on record: RPMI broth microdilution, 35° C., 48 hours, visual. The protocol: as §3, §4, §5, §6, §7, §8, §9
Data set [17] relates to Candida krusei ATCC 6258. The data set is described as follows: microbe, parasite or virus in culture. Type of data set: cell-based. The settings on record: RPMI broth microdilution, 35° C., 48 hours, visual. The method, then: as §3, §4, §5, §6, §7, §8, §9
For data set [18], the system named is Candida tropicalis ATCC 750. The data set is described as follows: microbe, parasite or virus in culture. Type of data set: cell-based. The settings on record: RPMI broth microdilution, 35° C., 48 hours, visual. The protocol: as §3, §4, §5, §6, §7, §8, §9
Data set [19] in a line: in vitro. The settings on record: human. The method in brief:
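Peptides at 2-200 μmol.l^−1 incubated 1 h at 37 °C with 5% v/v human erythrocyte suspension in physiological solution. Released haemoglobin in supernatant read at 540 nm against buffer (0%) and 0.2% Triton X100 (100%) lysis controls. LC50 is the peptide concentration lysing 50% of cells.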

Data set [20] relates to P. aeruginosa (Liberec). The data set is described as follows: Synergistic effect of peptides with antibiotics, FIC index. The data set is classed as cell-based, Pseudomonas aeruginosa. The settings on record: FIC <0.5 synergism, 0.5-2 additive, >2 antagonism, averages of three experiments. The protocol: MICs values of various combinations of two fold serial dilutions of peptides and antibiotics were determined using the same methodology as in the case of antimicrobial activity determination (Example 2). To consider the type of the final effect, FIC indexes (fractional inhibitory concentration) were used and calculated as follows:
[formula] where MICPC and MICAC are the MICs of the peptide and antibiotic in combination, respectively, and MICP and MICA are the MICs of the peptide and antibiotic tested alone, respectively. FIC<0.5 were considered as synergy, 0.5≤FIC≤2 as addition effect, and FIC>2 as antagonism.

In the case of H-GIMSSLMKKLAAHIKK-NH2 [VIII], in data set [1], the “Antimicrobial activity MIC B. s.” value is 2.8 µM. In addition, the “Antimicrobial activity MIC C. a. Olomouc” value in data set [2] amounted to 5.0 µM. Besides, in data set [3], the “Antimicrobial activity MIC E. f. Motol” value is above 100 µM. In addition, the “Antimicrobial activity MIC E. c.” value in data set [4] was found to be 20.0 µM. Moreover, the “Antimicrobial activity MIC S. a. 6271” value in [5] came out at 85.3 µM. Also, the “Antimicrobial activity MIC M. l.” value in [6] was determined as 1.6 µM. Moreover, in data set [7], the “Antimicrobial activity MIC P. a. 5482” value stood at 23.0 µM. Moreover, the “Antimicrobial activity MIC P. a. Liberec” value in data set [8] was 46.0 µM. Also, in data set [9], the “Antimicrobial activity MIC S. a. Liberec” value is 76.7 µM. For the same substance, in [10], the “Antimicrobial activity MIC S. a. Motol” value came out at 90.0 µM. The “Antimicrobial activity MIC S. e. Motol” value in [11] is 11.3 µM. Moreover, the “Antifungal activity MIC C. albicans Olomouc” value in [12] was found to be 17.0 µM. Besides, the “Antifungal activity MIC C. albicans ATCC MYA-2876” value in [13] was 20.0 µM. The “Antifungal activity MIC C. dubliniensis ATCC MYA-646” value in data set [14] stood at 36.0 µM. Further, the “Antifungal activity MIC C. glabrata ATCC 2001” value in data set [15] turned out to be 26.0 µM. For the same substance, the “Antifungal activity MIC C. glabrata DSY 565” value in data set [16] was 66.7 µM. For the same substance, in [17], the “Antifungal activity MIC C. krusei ATCC 6258” value stood at 10.0 µM. Besides, the “Antifungal activity MIC C. tropicalis ATCC 750” value in [18] was found to be 1.1 µM.

On to H-GILSSLLKKWKKIIAK-NH2 [XVI], for which the “Antimicrobial activity MIC B. s.” value in data set [1] was determined as 1.6 µM. In addition, in [2], the “Antimicrobial activity MIC C. a. Olomouc” value amounted to 10.5 µM. Also, the “Antimicrobial activity MIC E. f. Motol” value in data set [3] worked out at 100.0 µM. For the same substance, the “Antimicrobial activity MIC E. c.” value in data set [4] came to 7.5 µM. Further, the “Antimicrobial activity MIC S. a. 6271” value in data set [5] was 20.0 µM. Moreover, the “Antimicrobial activity MIC M. l.” value in [6] is 2.0 µM. Further, the “Antimicrobial activity MIC P. a. 5482” value in data set [7] turned out to be 5.0 µM. Moreover, the “Antimicrobial activity MIC P. a. Liberec” value in data set [8] came out at 7.1 µM. Also, the “Antimicrobial activity MIC S. a. Liberec” value in [9] was 8.8 µM. Further, in [10], the “Antimicrobial activity MIC S. a. Motol” value was found to be 20.3 µM. Moreover, in data set [11], the “Antimicrobial activity MIC S. e. Motol” value is 2.7 µM. In [19], the HC50 at 1 h is above 400 µM. In addition, the “Antifungal activity MIC C. albicans Olomouc” value in [12] turned out to be 18.0 µM. Also, in [13], the “Antifungal activity MIC C. albicans ATCC MYA-2876” value turned out to be 26.0 µM. In addition, the “Antifungal activity MIC C. dubliniensis ATCC MYA-646” value in [14] stood at 40.0 µM. Besides, in [15], the “Antifungal activity MIC C. glabrata ATCC 2001” value is 40.0 µM. Besides, the “Antifungal activity MIC C. glabrata DSY 565” value in data set [16] is 231.1 µM. Besides, the “Antifungal activity MIC C. krusei ATCC 6258” value in [17] was 10.0 µM. Besides, the “Antifungal activity MIC C. tropicalis ATCC 750” value in [18] was found to be 1.0 µM. In [20] (peptide combined with rifampicin), the “FIC indexes (fractional inhibitory concentration) Combination with RIF against P. aeruginosa” value came to 0.417. Also, in data set [20] (peptide combined with tetracycline), the “FIC indexes (fractional inhibitory concentration) Combination with TET against P. aeruginosa” value is reported as 0.583.
